Measurements as given in US20130156755A1, “CANCER THERAPY USING A COMBINATION OF A HSP90 INHIBITORY COMPOUNDS AND A VEGF INHIBITOR” (Synta Pharmaceuticals Corp., priority 2010, published 2013).
“Also recorded” adds a separate entry of the source.

How the values were obtained:
[1] = test system: human NSCLC cell line HCC827; test: SCID mouse xenograft study, in vivo growth of HCC827 tumors; conditions: 4 doses (FIG. 8)
Description: Tumor-bearing animals (8 mice/group) were injected 1 time per week for a total of 4 doses (arrowheads) with vehicle alone, Compound 1 alone, bevacizumab alone or a combination of Compound 1 and bevacizumab dosed concurrently. Compound 1 was i.v. injected and bevacizumab was i.p. injected. The average tumor volumes for each group (error bars represent SEM) were determined every 2-4 days.

[2] = test system: human multiple myeloma cell line RPMI 8226; test: SCID mouse xenograft model, in vivo growth of RPMI 8226 tumors
Description: (§1) The human non-small cell lung cancer (NSCLC) cell line, NCI-H1975 (ATCC #CRL-5908) was obtained from the American Type Culture Collection (ATCC; Manassas, Va., USA). The human multiple myeloma cell line, RPMI 8226 (ATCC #CCL-155) was also obtained from the ATCC.
(§2) NCI-H1975 cells were cultured in growth media prepared from 50% Dulbecco's Modified Eagle Medium (high glucose), 50% RPMI Media 1640 (4.5 g/L glucose), 10% fetal bovine serum (FBS), 10 mM HEPES, 1% 100× Penicillin-Streptomycin, 1% 100× sodium pyruvate and 1% 100× MEM non-essential amino acids. RPMI 8226 cells were cultured in growth media prepared with RPMI Media 1640 (4.5 g/L glucose), 10% FBS, 10 mM HEPES, 1% 100× Penicillin-Streptomycin, 1% 100× sodium pyruvate and 1% 100× MEM non-essential amino acids. FBS was obtained from ATCC and all other reagents were obtained from Invitrogen Corp. (Carlsbad, Calif., USA). Cells that had been cryopreserved in liquid nitrogen were rapidly thawed at 37° C. and transferred to a tissue culture flask containing growth media and then incubated at 37° C. in a 5% CO2 incubator. To expand the RPMI 8226 cell line, growth media was changed every 2-3 days and cultures were passaged 1:3 to 1:5 every 3-5 days. When the a 175 cm^2 flask reached approximately 20-40×10(6) total cells, the above passaging process was repeated until sufficient cells had been obtained for implantation into mice. To expand the NCI-H1975 cell line, cultures were split 1:5 every 3 days when 175 cm^2 flasks became 85% confluent. Cultures were passaged by washing with 10 mL of room temperature phosphate buffered saline (PBS) and then disassociating cells by adding 5 mL 1× trypsin-EDTA and incubating at 37° C. until the cells detached from the surface of the flask. To inactivate the trypsin, 5 mL of growth media was added and then the contents of the flask were centrifuged to pellet the cells. The supernatant was aspirated and the cell pellet was resuspended in 10 mL of growth media and the cell number determined using a hemocytometer. Cells were seeded into 175 cm^2 flasks containing 50 mL of growth media and incubated at 37° C. in a 5% CO2 incubator. When the flasks reached 85% confluence, the above passaging process was repeated until sufficient cells had been obtained for implantation into mice.
(§3) Six to eight week old, female CB17/Icr-Prkdc^scid/Crl (SCID) mice were obtained from Charles River Laboratories (Wilmington, Mass., USA) Animals were housed 4-5/cage in micro-isolators, with a 12 hr/12 hr light/dark cycle, acclimated for at least 1 week prior to use and fed normal laboratory chow ad libitum. Animals were between seven to thirteen weeks of age at implantation. To implant NCI-H1975 or RPMI 8226 tumor cells into SCID mice, cells were collected as described above, washed in PBS and resusupended at a concentration of 5×10(7) cells/mL in 50% non-supplemented medium and 50% Matrigel Basement Membrane Matrix (#354234; BD Biosciences; Bedford, Mass., USA). Using a 27 gauge needle and 1 cc syringe, 5×10(6) […] or RPMI 8226 cells in 0.1 mL of a cell suspension were injected subcutaneously into the flanks of SCID mice.
(§4) For the NCI-H1975 model, tumors were then permitted to develop in vivo until the majority reached approximately 100-225 mm^3 in tumor volume, which required ˜1½ weeks. For the RPMI 8226 model, tumors were permitted to develop in vivo until the majority reached approximately 80-200 mm^3 in tumor volume, which required ˜3½ weeks. […] Tumor volumes (V) were calculated by caliper measurement of the width (W), length (L) and thickness (T) of tumors using the following formula: V=0.5236×(L×W×T). […]

[3] = test system: human NSCLC cell line NCI-H1975; test: SCID mouse xenograft model, in vivo growth of NCI-H1975 tumors
Description: as §1, §2, §3, §4

[4] = highest non-severely toxic dose (HNSTD) in tumor-bearing SCID mice; type: in vivo, mouse; conditions: i.v. dosed once per week, tumor-bearing SCID mice (data not shown)
Description: The combination of Compound 1 and bevacizumab was also examined in the NCI-H1975 model using higher doses of each test article. […] The HNSTD was determined based on prior studies and was defined as the dose and dosing schedule at which no morbidity was observed, and at which no individual animal lost ≧20% of its body weight and no treatment group lost ≧10% average body weight over the course of the study.

[5] = test system: RERF-LC-AI^IVP human lung tumor cells; test: nude mouse xenograft model, in vivo growth rate of RERF-LC-AI^IVP tumors; conditions: 5 times per week, 15 doses, nude mice
Description: The human squamous non-small cell lung cancer cell line, RERF-LC-AI (RCB0444; S. Kyoizumi, et al., Cancer. Res. 45:3274-3281, 1985), was obtained from the Riken Cell Bank (Tsukuba, Ibaraki, Japan). The cell line was cultured in growth media prepared from 50% Dulbecco's Modified Eagle Medium (high glucose), 50% RPMI Media 1640, 10% fetal bovine serum (FBS), 1% 100× L-glutamine, 1% 100× penicillin-streptomycin, 1% 100× sodium pyruvate and 1% 100× MEM non-essential amino acids. FBS was obtained from American Type Culture Collection (Manassas, Va., USA) and all other reagents were obtained from Invitrogen Corp. (Carlsbad, Calif., USA). […]
The growth media was replaced every 2-3 days until the flask became 90% confluent, typically in 5-7 days. […] The supernatant was aspirated and the cell pellet was resuspended in 10 ml of growth media and the cell number determined using a hemocytometer. […]
Seven to eight week old, female Crl:CD-1-nuBR (nude) mice were obtained from Charles River Laboratories (Wilmington, Mass., USA) Animals were housed 4-5/cage in micro-isolators, with a 12 hr/12 hr light/dark cycle, acclimated for at least 1 week prior to use and fed normal laboratory chow ad libitum. […] Tumor volumes (V) were calculated by caliper measurement of the width (W), length (L) and thickness (T) of tumors using the following formula: V=0.5236×(L×W×T). […]

[6] = body weight changes in nude mouse RERF-LC-AI^IVP xenograft study; type: in vivo; conditions: 200 mg/kg body weight i.p., 5 times per week, 15 doses, nude mice
Description: Seven to eight week old, female Crl:CD-1-nuBR (nude) mice were obtained from Charles River Laboratories (Wilmington, Mass., USA) Animals were housed 4-5/cage in micro-isolators, with a 12 hr/12 hr light/dark cycle, acclimated for at least 1 week prior to use and fed normal laboratory chow ad libitum. Studies were conducted on animals between 8 and 12 weeks of age at implantation. To implant RERF-LC-AI tumor cells into nude mice, the cells were trypsinized as above, washed in PBS and resuspended at a concentration of 50×10(6) cells/ml in 50% non-supplemented RPMI Media 1640 and 50% Matrigel Basement Membrane Matrix (#354234; BD Biosciences; Bedford, Mass., USA). Using a 27 gauge needle and 1 cc syringe, 0.1 ml of the cell suspension was injected subcutaneously into the flank of each nude mouse. Tumor volumes (V) were calculated by caliper measurement of the width (W), length (L) and thickness (T) of tumors using the following formula: V=0.5236×(L×W×T).
The Hsp90 inhibitor, 17-allylamino-17-demethoxygeldanamycin (17-AAG), was employed as a positive control (Albany Molecular Research, Albany, N.Y., USA). Stock solutions of test articles were prepared by dissolving the appropriate amounts of each compound in dimethyl sulfoxide (DMSO) by sonication in an ultrasonic water bath. Stock solutions were prepared weekly, stored at −20° C. and diluted fresh each day for dosing. […]

## CC(C)c1cc(-c2nnc(O)n2-c2ccc3c(ccn3C)c2)c(O)cc1O [Compound 1, 3-(2,4-DIHYDROXY-5- ISOPROPYL-PHENYL)-4-(1- METHYL-INDOL-5-YL)-5- HYDROXY-[1,2,4] TRIAZOLE]
[1]; 150 mg/kg i.v. once per week
  tumor growth: moderately inhibited tumor growth
[2]; 12.5 mg/kg i.v. 5 times per week, 15 doses (FIG. 5)
  tumor growth: moderately inhibited tumor growth
[2]; 12.5 mg/kg i.v. five times per week (15 doses), day 49, SCID mice
  % T/C value: 63%
[2]; second study, single dose 12.5 mg/kg, over three days (data not shown)
  % T/C value: 83%
[3]; 50 mg/kg i.v. once per week (3 doses), day 29, SCID mice
  % T/C value: 39%
[3]; 50 mg/kg i.v. once per week, 3 doses (FIG. 3)
  tumor growth: moderately inhibited tumor growth
[3]; 150 mg/kg i.v. once per week (4 doses), day 38, SCID mice
  % T/C value: 3%
[3]; 150 mg/kg i.v. once per week, 4 doses (FIG. 4)
  tumor growth: substantially inhibited tumor growth
[4]
  highest non-severely toxic dose (HNSTD): 150 mg/kg

## C=CCNC1=C2C[C@@H](C)C[C@H](OC)[C@H](O)[C@@H](C)/C=C(\C)[C@H](OC(N)=O)[C@@H](OC)/C=C\C=C(/C)C(=O)NC(=CC1=O)C2=O [Compound 17-AAG, 17-allylamino-17-demethoxygeldanamycin, reference compound]
[5]; 75 mg/kg body weight i.p.
  tumor growth (growth rate of tumor cells): inhibited tumor growth; also recorded: decreased the growth rate

## CCc1cc(-c2nnc(S)n2-c2ccc(OC)c3c2ccn3C(C)C)c(O)cc1O [Compound 26, 3-(2,4-DIHYDROXY-5-ETHYL- PHENYL)-4-(1-ISOPROPYL-7- METHOXY-INDOL-4-YL)-5- MERCAPTO-[1,2,4] TRIAZOLE]
[5]; 200 mg/kg body weight i.p.
  tumor growth (growth rate of tumor cells): inhibited tumor growth; also recorded: decreased the growth rate
[6]
  overt toxicity (effect on body weights): not overtly toxic; also recorded: not associated with overt toxicity

## bevacizumab: Humanized monoclonal antibody that blocks VEGF; VEGF inhibitor purchased from Genentech [reference compound]
[1]; 10 mg/kg i.p. once per week
  tumor growth: moderately inhibited tumor growth
[2]; 0.3 mg/kg i.p. 2 times a week, 6 doses (FIG. 5)
  tumor growth: moderately inhibited tumor growth
[2]; 0.3 mg/kg i.p. twice per week (6 doses), day 49, SCID mice
  % T/C value: 26%
[2]; second study, single dose 1 mg/kg, over three days (data not shown)
  % T/C value: 42%
[3]; 2 mg/kg i.p. once per week (3 doses), day 29, SCID mice
  % T/C value: 18%
[3]; 2 mg/kg i.p. once per week, 3 doses (FIG. 3)
  tumor growth: moderately inhibited tumor growth
[3]; 10 mg/kg i.p. once per week (4 doses), day 38, SCID mice
  % T/C value: 17%
[3]; 10 mg/kg i.p. once per week, 4 doses (FIG. 4)
  tumor growth: moderately inhibited tumor growth
